Structures can show the parent of a compound that is named as a salt.
Legend:
[1] = Solubility study for drug saturation in spray vehicle (Example 45); type: physicochemical
Method: Solubility studies to find out concentration at which the drug is present at saturation levels were performed as follows: The drug (bupivacaine hydrochloride 2, 4, 8, 10,12 & 16 mg) was added to, propylene glycol, oleyl alcohol and menthol in ethanol under stirring and mixing till clear solution is formed. The film-forming polymer in the clear drug solution was added while stirring till polymer dissolves or hydrates completely.

[2] = In-vivo study in healthy rats, drug plasma concentration after 4 sprays; settings: rat, topical
Method: A total of 4 sprays were applied (two sprays on the back and two sprays on the abdominal area of the animal) using a metered dose mechanical spray pump. Blood samples were collected at 15, 30 minutes, 1, 2, 4, 8 and 24 hours. All samples were analyzed using a validated analytical LC-MS method.

appearance of drug solution on standing ([1]; other solutions (2, 4, 8, 10, 12 mg)): clear and no precipitate was observed | concentration at which drug saturation was achieved ([1]; propylene glycol, oleyl alcohol, menthol, ethanol, film-forming polymer): about 12 mg per spray | concentration at 0 h ([2]; 8 mg strength): 1 ng/mL | concentration at 0.25 h ([2]; 8 mg strength): 82 ng/mL | concentration at 0.5 h ([2]; 8 mg strength): 119 ng/mL | concentration at 1 h ([2]; 8 mg strength): 148 ng/mL | concentration at 2 h ([2]; 8 mg strength): 95 ng/mL | concentration at 4 h ([2]; 8 mg strength): 221 ng/mL | concentration at 8 h ([2]; 8 mg strength): 147 ng/mL | concentration at 24 h ([2]; 8 mg strength): 55 ng/mL | concentration at 0 h ([2]; 12 mg strength): 0 ng/mL | concentration at 0.25 h ([2]; 12 mg strength): 73 ng/mL | concentration at 0.5 h ([2]; 12 mg strength): 109 ng/mL | concentration at 1 h ([2]; 12 mg strength): 249 ng/mL | concentration at 2 h ([2]; 12 mg strength): 180 ng/mL | concentration at 4 h ([2]; 12 mg strength): 270 ng/mL | concentration at 8 h ([2]; 12 mg strength): 329 ng/mL | concentration at 24 h ([2]; 12 mg strength): 172 ng/mL
Structure (SMILES): CCCCN1CCCCC1C(=O)Nc1c(C)cccc1C (stereo not shown) [Bupivacaine HCl]
appearance of drug solution on standing ([1]; 16 mg of drug): precipitated out from clear solution after standing
